Measured values as given in patent EP2518054A1, “AMIDE COMPOUND” (Takeda Pharmaceutical Company Limited, priority 2009, dated 2011).
Blank lines part the entries; values can stand above or below the compound they belong to.

Tests used:
human GPR52 = molecular target: T1, human GPR52 (Homo sapiens, UniProt Q9Y2T5); assay: Increase of intracellular cAMP concentration in human GPR52-expressing CHO cell (AlphaScreen cAMP assay); format: cell-based; conditions: human GPR52-expressing CHO(dhfr-) cells; for activity at 1 µM: CHO, 1µM test compound, 100% = cAMP with 1 µM Reference Example 79, 0% = DMSO, 37°C, 30 min, read-out: GPR52 agonist activity (%); for EC50: concentration of the test compound at which it shows 50% activity, read-out: GPR52 agonist activity EC50
T1 construct: expressed in transfected cells; host or cells: CHO(dhfr-) cells
T1 sequence (Q9Y2T5 whole entry): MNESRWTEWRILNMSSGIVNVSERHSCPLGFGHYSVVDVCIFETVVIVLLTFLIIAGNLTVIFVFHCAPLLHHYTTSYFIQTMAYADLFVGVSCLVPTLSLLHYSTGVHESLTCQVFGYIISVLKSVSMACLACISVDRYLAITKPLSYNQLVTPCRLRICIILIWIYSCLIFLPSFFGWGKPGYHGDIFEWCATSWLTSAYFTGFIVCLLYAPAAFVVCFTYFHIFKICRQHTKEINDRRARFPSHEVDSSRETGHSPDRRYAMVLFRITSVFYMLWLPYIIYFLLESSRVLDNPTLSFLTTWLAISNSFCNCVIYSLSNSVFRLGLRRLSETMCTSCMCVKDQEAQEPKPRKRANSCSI
Procedure: Increase of intracellular cAMP concentration in human GPR52-expressing CHO cell
Using OptiPlate-384 (PerkinElmer Inc.), 1×10^4 human GPR52-expressing CHO(dhfr-) cells were incubated together with various concentration(10^-5µM - 10µm) of a test compound in an assay buffer (30 µL, HBSS (containing Ca^2+ and Mg^2+), 0.5% BSA, 100 µM IBMX, 100 µM Ro20-1724, 5 mM HEPES (pH 7.55)) at 37°C for 30 min. Thereafter, according to the protocol of AlphaScreen CAMP Assay Kit (PerkinElmer Inc.), the intracellular cAMP concentration was measured by EnVision (PerkinElmer Inc.). The GPR52 agonist activity was calculated, assuming the intracellular cAMP concentration in the presence of […] N-(2-hydroxyethyl)-3-[2-[3-(trifluoromethyl)benzyl]-1-benzofuran-4-yl]benzamide (Reference Example 79) to be 100% and assuming the intracellular cAMP concentration when DMSO was added instead of the test compound to be 0%.

[1] = system: methamphetamine-induced locomotor hyperactivity in mice; assay: Inhibition test of methamphetamine-induced locomotor hyperactivity; format: in vivo; conditions: test compound 10 mg/kg body weight orally, male ICR mice; methamphetamine 2 mg/kg s.c. 60 min later; locomotor activity counted over 150 min, versus vehicle group
Procedure: Inhibition test of methamphetamine-induced locomotor hyperactivity
The compound of the present invention can be evaluated by assessing its capacity to inhibit methamphetamine-induced locomotor hyperactivity in mice. The method of Okuyama et al (Life Science, Vol. 65, p. 2109-2125 (1999)) was modified and used for testing the inhibition of methamphetamine-induced locomotor hyperactivity.
Locomotor activity was measured using a 32-channel locomotor activity measurement device MDC-LT (BrainScience Idea Co., Ltd.), which emits infrared beams from the top of a cage (30 x 40 x 20 cm). 6- to 8-Week-old male ICR mice were acclimated for at least 45 min in the measurement cages, and then either test compound (10 mg/kg body weight) dissolved in vehicle (0.5% aqueous methylcellulose solution) or the vehicle alone was orally administered. This oral administration was followed 60 min later by subcutaneous administration of methamphetamine (2 mg/kg body weight).
The number of times the laboratory animals passed through the infrared beams emitted inside the measurement cages in 150 min after administration of the test compound or vehicle was counted to quantify locomotor activity. The methamphetamine-induced locomotor hyperactivity inhibition rate (activity inhibition rate (%)) was calculated by the following equation. Activity inhibition rate (%) = {1-(locomotor activity of test compound treatment group after treatment with methamphetamine÷locomotor activity of vehicle treatment group after treatment with methamphetamine)}x 100 [formula] The results are shown in Table 3

Compound: COCCNC(=O)c1cn(-c2cccc3cc(Cc4cccc(C(F)(F)F)c4)sc23)nc1C [Example 14, N-(2-methoxyethyl)-3-methyl-1-[2-[3-(trifluoromethyl)benzyl]-1-benzothiophen-7-yl]-1H-pyrazole-4-carboxamide]
activity at 1 µM (human GPR52): 87%
EC50 (human GPR52): 14 nM
Activity inhibition rate (%) [1]: 53%

Compound: Cc1nn(-c2cccc3cc(Cc4cccc(C(F)(F)F)c4)sc23)cc1C(=O)NCCO [Example 15, N-(2-hydroxyethyl)-3-methyl-1-[2-[3-(trifluoromethyl)benzyl]-1-benzothiophen-7-yl]-1H-pyrazole-4-carboxamide]
activity at 1 µM (human GPR52): 102%
EC50 (human GPR52): 5.7 nM
Activity inhibition rate (%) [1]: 48%

Compound: Cc1nn(-c2cccc3cc(Cc4cccc(C(F)(F)F)c4)sc23)cc1C(N)=O [Example 17, 3-methyl-1-[2-[3-(trifluoromethyl)benzyl]-1-benzothiophen-7-yl]-1H-pyrazole-4-carboxamide]
activity at 1 µM (human GPR52): 96%
EC50 (human GPR52): 11 nM
Activity inhibition rate (%) [1]: 43%

Compound: Cc1nn(-c2ccc(F)c3cc(Cc4cccc(C(F)(F)F)c4)sc23)c(C)c1C(=O)NCC(N)=O [Example 58, N-(2-amino-2-oxoethyl)-1-[4-fluoro-2-[3-(trifluoromethyl)benzyl]-1-benzothiophen-7-yl]-3,5-dimethyl-1H-pyrazole-4-carboxamide]
activity at 1 µM (human GPR52): 92%
EC50 (human GPR52): 40 nM
Activity inhibition rate (%) [1]: 47%

Compound: Cc1nn(-c2cccc3cc(Cc4cccc(C(F)(F)F)c4)sc23)c(CO)c1C(=O)NCCO [Example 65, N-(2-hydroxyethyl)-5-(hydroxymethyl)-3-methyl-1-[2-[3-(trifluoromethyl)benzyl]-1-benzothiophen-7-yl]-1H-pyrazole-4-carboxamide]
activity at 1 µM (human GPR52): 99%
Activity inhibition rate (%) [1]: 51%

Compound: Cc1nn(-c2ccc(F)c3cc(Cc4cc(F)cc(Cl)c4)sc23)c(CO)c1C(=O)NCCO [Example 90, 1-[2-(3-chloro-5-fluorobenzyl)-4-fluoro-1-benzothiophen-7-yl]-N-(2-hydroxyethyl)-5-(hydroxymethyl)-3-methyl-1H-pyrazole-4-carboxamide]
activity at 1 µM (human GPR52): 104%
EC50 (human GPR52): 14 nM

Compound: Cc1nn(-c2ccc(F)c3cc(Cc4cc(F)cc(Cl)c4)sc23)c(CO)c1C(N)=O [Example 91, 1-[2-(3-chloro-5-fluorobenzyl)-4-fluoro-1-benzothiophen-7-yl]-5-(hydroxymethyl)-3-methyl-1H-pyrazole-4-carboxamide]
activity at 1 µM (human GPR52): 99%

Compound: Cc1cccc(Cc2cc3cccc(-n4nc(C)c(C(=O)NCC(N)=O)c4C)c3s2)c1 [Example 93, N-(2-amino-2-oxoethyl)-3,5-dimethyl-1-[2-(3-methylbenzyl)-1-benzothiophen-7-yl]-1H-pyrazole-4-carboxamide]
activity at 1 µM (human GPR52): 70%

Compound: Cc1cccc(Cc2cc3cccc(-n4nc(C)c(C(=O)NCCO)c4C)c3s2)c1 [Example 94, N-(2-hydroxyethyl)-3,5-dimethyl-1-[2-(3-methylbenzyl)-1-benzothiophen-7-yl]-1H-pyrazole-4-carboxamide]
activity at 1 µM (human GPR52): 96%

Compound: Cc1cccc(Cc2cc3cccc(-n4nc(C)c(C(N)=O)c4C)c3s2)c1 [Example 95, 3,5-dimethyl-1-[2-(3-methylbenzyl)-1-benzothiophen-7-yl]-1H-pyrazole-4-carboxamide]
activity at 1 µM (human GPR52): 95%

Compound: COc1cc(Cc2cc3cccc(-n4nc(C)c(C(=O)NCC(N)=O)c4C)c3s2)ccc1F [Example 96, N-(2-amino-2-oxoethyl)-1-[2-(4-fluoro-3-methoxybenzyl)-1-benzothiophen-7-yl]-3,5-dimethyl-1H-pyrazole-4-carboxamide]
activity at 1 µM (human GPR52): 84%

Compound: COc1cc(Cc2cc3cccc(-n4nc(C)c(C(=O)NCCO)c4C)c3s2)ccc1F [Example 97, 1-[2-(4-fluoro-3-methoxybenzyl)-1-benzothiophen-7-yl]-N-(2-hydroxyethyl)-3,5-dimethyl-1H-pyrazole-4-carboxamide]
activity at 1 µM (human GPR52): 94%

Compound: COc1cc(Cc2cc3cccc(-n4nc(C)c(C(N)=O)c4C)c3s2)ccc1F [Example 98, 1-[2-(4-fluoro-3-methoxybenzyl)-1-benzothiophen-7-yl]-3,5-dimethyl-1H-pyrazole-4-carboxamide]
activity at 1 µM (human GPR52): 98%

Compound: Cc1nn(-c2cccc3cc(Cc4cc(F)cc(F)c4)sc23)c(C)c1C(=O)NCCO [Example 99, 1-[2-(3,5-difluorobenzyl)-1-benzothiophen-7-yl]-N-(2-hydroxyethyl)-3,5-dimethyl-1H-pyrazole-4-carboxamide]
activity at 1 µM (human GPR52): 99%
EC50 (human GPR52): 13 nM

Compound: Cc1nn(-c2cccc3cc(Cc4cc(F)cc(F)c4)sc23)c(C)c1C(N)=O [Example 100, 1-[2-(3,5-difluorobenzyl)-1-benzothiophen-7-yl]-3,5-dimethyl-1H-pyrazole-4-carboxamide]
activity at 1 µM (human GPR52): 104%

Compound: Cc1nn(-c2cccc3cc(Cc4cc(F)cc(F)c4)sc23)c(C)c1C(=O)NCC(N)=O [Example 101, N-(2-amino-2-oxoethyl)-1-[2-(3,5-difluorobenzyl)-1-benzothiophen-7-yl]-3,5-dimethyl-1H-pyrazole-4-carboxamide]
activity at 1 µM (human GPR52): 96%

Next, values leading:

activity at 1 µM (human GPR52): 99%
Compound: CNC(=O)c1c(C)nn(-c2ccc(F)c3cc(Cc4cccc(C(F)(F)F)c4)sc23)c1C [Example 102, 1-[4-fluoro-2-[3-(trifluoromethyl)benzyl]-1-benzothiophen-7-yl]-N,3,5-trimethyl-1H-pyrazole-4-carboxamide]

activity at 1 µM (human GPR52): 97%
Compound: Cc1nn(-c2ccc(F)c3cc(Cc4cccc(C(F)(F)F)c4)sc23)c(C)c1C(=O)NC1CC1 [Example 103, N-cyclopropyl-1-[4-fluoro-2-[3-(trifluoromethyl)benzyl]-1-benzothiophen-7-yl]-3,5-dimethyl-1 H-pyrazole-4-carboxamide]

activity at 1 µM (human GPR52): 93%
Compound: Cc1nn(-c2cccc3sc(Cc4cccc(C(F)(F)F)c4)cc23)c(C)c1C(N)=O [Example 104, 3,5-dimethyl-1-[2-[3-(trifluoromethyl)benzyl]-1-benzothiophen-4-yl]-1H-pyrazole-4-carboxamide]

activity at 1 µM (human GPR52): 94%
Compound: Cc1nn(-c2cccc3sc(Cc4cccc(C(F)(F)F)c4)cc23)c(C)c1C(=O)NCC(N)=O [Example 105, N-(2-amino-2-oxoethyl)-3,5-dimethyl-1-[2-[3-(trifluoromethyl)benzyl]-1-benzothiophen-4-yl]-1H-pyrazole-4-carboxamide]

activity at 1 µM (human GPR52): 97%
Compound: Cc1nn(-c2cccc3sc(Cc4cccc(C(F)(F)F)c4)cc23)c(C)c1C(=O)NCCO [Example 106, N-(2-hydroxyethyl)-3,5-dimethyl-1-[2-[3-(trifluoromethyl)benzyl]-1-benzothiophen-4-yl]-1H-pyrazole-4-carboxamide]

activity at 1 µM (human GPR52): 100%
Compound: Cc1nn(-c2cccc3sc(Cc4cc(F)cc(Cl)c4)cc23)c(C)c1C(=O)NCC(N)=O [Example 107, N-(2-amino-2-oxoethyl)-1-[2-(3-chloro-5-fluorobenzyl)-1-benzothiophen-4-yl]-3,5-dimethyl-1H-pyrazole-4-carboxamide]

activity at 1 µM (human GPR52): 93%
Compound: Cc1nn(-c2cccc3sc(Cc4cc(F)cc(Cl)c4)cc23)c(C)c1C(=O)NCCO [Example 108, 1-[2-(3-chloro-5-fluorobenzyl)-1-benzothiophen-4-yl]-N-(2-hydroxyethyl)-3,5-dimethyl-1H-pyrazole-4-carboxamide]

activity at 1 µM (human GPR52): 89%
Compound: Cc1nn(-c2cccc3sc(Cc4cc(F)cc(Cl)c4)cc23)c(C)c1C(N)=O [Example 109, 1-[2-(3-chloro-5-fluorobenzyl)-1-benzothiophen-4-yl]-3,5-dimethyl-1H-pyrazole-4-carboxamide]

activity at 1 µM (human GPR52): 94%
Compound: Cn1nc(-c2cccc3cc(Cc4cccc(C(F)(F)F)c4)sc23)cc1C(=O)NCC(N)=O [Example 110, N-(2-amino-2-oxoethyl)-1-methyl-3-[2-[3-(trifluoromethyl)benzyl]-1-benzothiophen-7-yl]-1H-pyrazole-5-carboxamide]

activity at 1 µM (human GPR52): 89%
EC50 (human GPR52): 38 nM
Compound: Cn1nc(-c2cccc3cc(Cc4cccc(C(F)(F)F)c4)sc23)cc1C(=O)NCCO [Example 111, N-(2-hydroxyethyl)-1-methyl-3-[2-[3-(trifluoromethyl)benzyl]-1-benzathiophen-7-yl]-1H-pyrazole-5-carboxamide]
